Read-outs that look alike come from different tables or passages of the source.

The target in one data set is Glutamate, NMDA, Glycine (Rattus norvegicus, UniProt P35439). The data set can be described thus: Off-target 232910. Format: binding. The protocol: (§1) The potential off-target activity of 10 µM (OEG2)2-IP4 was assessed against a panel of 87 enzymes, receptors, or ion channels that are used in standard safety pharmacology screens.
(§2) 3.2. Off-target screening assay
(§3) The experiments were conducted by a contract research organization (Eurofins Panlabs Discovery
(§4) Services Taiwan, Ltd.) and details on the respective assays can be retrieved via the catalog number
(§5) provided in Supplementary Table 11 from the company’s webpage
(§6) (https://www.eurofinsdiscoveryservices.com/). […]

Another data set addresses T1, Opiate δ1 (OP1, DOP) (Homo sapiens, UniProt P41143).
T1 construct: purchased Eurofins Panlabs Discovery Services Taiwan, Ltd
The data set can be described thus: Off-target 260130. The data set is classed as binding. How it is done:
as §1, §2, §3, §4, §5, §6

A further data set concerns Glutamate, AMPA. In words: Off-target 232600. The data set is classed as binding, Rat. As to conditions: 10 µM. How it is done:
as §1, §2
(§7) The experiments were conducted by a contract research organization (Eurofins Panlabs Discovery Services Taiwan, Ltd.) and details on the respective assays can be retrieved via the catalog number provided in Supplementary Table 11 from the company’s webpage
as §6
(§8) At sacrifice the left tibia of animals of the rat model with dietary adenine/high-phosphate-induced uremia and VC was collected, fixed with 70% v/v EtOH and embedded in methyl methacrylate. The trabecular bone compartment is known to be the most metabolic active i.e. actively re-structured bone compartment in CKD. Therefore, histomorphometric and micro-computed tomography (µCT) analysis of bone was performed on the trabecular compartment. Tibial sections were Goldner-stained for histomorphometric analysis of the proximal metaphysis using the AxioVision Release 4.5 software, as […]
(§9) described previously5. […]

A further data set concerns the target T2, α2B (Homo sapiens, UniProt P18089).
T2 construct: purchased Eurofins Panlabs Discovery Services Taiwan, Ltd
In words: Off-target 203710. The data set is classed as binding. The protocol: as §1, §2, §3, §4, §5, §6

In the next data set the target is T3, Bradykinin B2 (Homo sapiens, UniProt P30411).
T3 construct: purchased Eurofins Panlabs Discovery Services Taiwan, Ltd
The data set can be described thus: Off-target 212320. The data set is classed as binding. How it is done:
as §1, §2, §7, §6, §8, §9

The target of data set [1] is T4, Protein Tyrosine Kinase, LCK (Homo sapiens, UniProt P06239).
T4 construct: purchased Eurofins Panlabs Discovery Services Taiwan, Ltd
The data set can be described thus: Off-target 176020. Format: biochemical. How it is done:
as §1, §2, §3, §4, §5, §6

In data set [2] the target is T5, Glutamate, Metabotropic, mGlu5 (Homo sapiens, UniProt P41594).
T5 construct: purchased Eurofins Panlabs Discovery Services Taiwan, Ltd
In words: Off-target 237000. The data set is classed as binding. The protocol: as §1, §2, §7, §6, §8, §9

A short description of data set [3]: Compound stress test in D2O at 37 °C (NMR). The data set is classed as physicochemical. As to conditions: up to 6 weeks. The protocol: For the compound stress test, 20.25 mg (OEG2)2-IP4 in 700 µL D2O was incubated at 37 °C and stability was monitored by ^1H-NMR and ^31P-NMR spectroscopies for up to 6 weeks.
Monitoring the stability of (OEG2)2-IP4 in aqueous solution at 37 °C for up to 6 weeks by 1H-
Monitoring the stability of (OEG2)2-IP4 in aqueous solution at 37 °C for up to 6 weeks by 31P- […]

A further data set deals with bone. The data set can be described thus: Tibial bone histomorphometry, adenine model. The data set is classed as in vivo, male Wistar rats. How it is done: At sacrifice the left tibia of animals of the rat model with dietary adenine/high-phosphate-induced uremia and VC was collected, fixed with 70% v/v EtOH and embedded in methyl methacrylate. The trabecular bone compartment is known to be the most metabolic active i.e. actively re-structured bone compartment in CKD. Therefore, histomorphometric and micro-computed tomography (µCT) analysis of bone was performed on the trabecular compartment. Tibial sections were Goldner-stained for histomorphometric analysis of the proximal metaphysis using the AxioVision Release 4.5 software, as described previously5. The total bone area (as percentage of total tissue area), osteoid area (as percentage of total bone area), and mineralized bone area (as percentage of total tissue area) were calculated from the primary measurements. Images of osteoclast and osteoblast were taken (Leica

For data set [4], the target named is T6, Transporter, Dopamine (DAT) (Homo sapiens, UniProt Q01959).
T6 construct: purchased Eurofins Panlabs Discovery Services Taiwan, Ltd
The data set can be described thus: Off-target 220320. Format: binding. How it is done: as §1, §2, §3, §4, §5, §6

In a further data set the test system is Glutamate, Kainate. The data set can be described thus: Off-target 232710. Format: binding, Rat. Particulars: 10 µM. How it is done:
as §1, §2, §3, §4, §5, §6

Another data set concerns the target T7, Neuropeptide Y Y1 (Homo sapiens, UniProt P25929).
T7 construct: purchased Eurofins Panlabs Discovery Services Taiwan, Ltd
In words: Off-target 257010. Format: binding. How it is done:
as §1, §2, §3, §4, §5, §6

In the next data set the target is T8, Dopamine D2L (Homo sapiens, UniProt P14416).
T8 construct: purchased Eurofins Panlabs Discovery Services Taiwan, Ltd
In words: Off-target 219500 (D2L). Format: binding. The protocol: as §1, §2, §3, §4, §5, §6

Data set [5] concerns the target T9, ATPase, Na+/K+, Heart, Pig (Sus scrofa, UniProt P05024).
T9 construct: purchased Eurofins Panlabs Discovery Services Taiwan, Ltd
In words: Off-target 107710. Format: biochemical. How it is done: as §1, §2, §3, §4, §5, §6

The target of another data set is T10, Melanocortin MC1 (Homo sapiens, UniProt Q01726).
T10 construct: purchased Eurofins Panlabs Discovery Services Taiwan, Ltd
The data set can be described thus: Off-target 251100 (MC1). The data set is classed as binding. The protocol:
as §1, §2, §7, §6, §8, §9

In a further data set the target is T11, Progesterone PR-B (Homo sapiens, UniProt P06401).
T11 construct: purchased Eurofins Panlabs Discovery Services Taiwan, Ltd
The data set can be described thus: Off-target 299005. The data set is classed as binding. How it is done: as §1, §2, §7, §6, §8, §9

Data set [6] concerns the target T12, Serotonin (5-Hydroxytryptamine) 5-HT2B (Homo sapiens, UniProt P41595).
T12 construct: purchased Eurofins Panlabs Discovery Services Taiwan, Ltd
In words: Off-target 271700. Format: binding. How it is done: as §1, §2, §7, §6, §8, §9

Data set [7] in a line: Protein binding in human plasma (ultrafiltration). Format: in vitro ADME. How it is done:
For many drugs, the PK profile depends on the patient’s renal status. Therefore, (OEG2)2-IP4 PK profile was also determined in an adenine and high-phosphate-diet-induced rat model of uremia, in which the compound was administered after serum creatinine levels had increased by fourfold relative to baseline (Fig. 4g, h). […] Similar results were observed following s.c. administration (Supplementary Table 5).
as §2
The experiments were conducted by a contract research organization (Eurofins Panlabs Discovery Services Taiwan, Ltd.) and details on the respective assays can be retrieved via the catalog number provided in Supplementary Table 11 from the company’s webpage […]
Concentrations of unbound (OEG2)2-IP4 in ultrafiltrated fractions and total (OEG2)2-IP4 concentrations were measured using a calibration prepared in ultrafiltrated pooled plasma and non-ultrafiltrated pooled plasma, respectively and LC-MS/MS quantification as described in Methods 6.3.
At sacrifice the left tibia of animals of the rat model with dietary adenine/high-phosphate-induced uremia and VC was collected, fixed with 70% v/v EtOH and embedded in methyl methacrylate. […] The total bone area (as percentage of total tissue area), osteoid area (as percentage of total bone area), and mineralized bone area (as percentage of total tissue area) were calculated from the primary measurements. […]

Details of data set [8]: method as in PMID 30280390. As to conditions: after a 4-h i.v. infusion, cited from earlier work.
The conditions of data set [9]: uremic rats, 4 h i.v. infusion of 50 mg/kg; cited from earlier work.

Chain of Glutamate, NMDA, Glycine (P35439 394-800 limits assumed): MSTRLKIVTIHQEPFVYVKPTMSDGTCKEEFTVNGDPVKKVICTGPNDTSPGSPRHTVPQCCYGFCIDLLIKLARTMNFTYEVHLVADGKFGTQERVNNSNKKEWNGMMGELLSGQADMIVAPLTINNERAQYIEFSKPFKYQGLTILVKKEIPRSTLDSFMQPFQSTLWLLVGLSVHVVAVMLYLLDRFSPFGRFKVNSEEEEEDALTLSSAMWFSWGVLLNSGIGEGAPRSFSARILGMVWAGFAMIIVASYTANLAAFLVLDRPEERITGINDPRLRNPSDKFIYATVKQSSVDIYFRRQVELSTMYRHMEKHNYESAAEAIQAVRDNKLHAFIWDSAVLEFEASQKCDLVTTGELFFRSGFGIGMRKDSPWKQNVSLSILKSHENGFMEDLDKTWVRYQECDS
T8 sequence (P14416 whole entry): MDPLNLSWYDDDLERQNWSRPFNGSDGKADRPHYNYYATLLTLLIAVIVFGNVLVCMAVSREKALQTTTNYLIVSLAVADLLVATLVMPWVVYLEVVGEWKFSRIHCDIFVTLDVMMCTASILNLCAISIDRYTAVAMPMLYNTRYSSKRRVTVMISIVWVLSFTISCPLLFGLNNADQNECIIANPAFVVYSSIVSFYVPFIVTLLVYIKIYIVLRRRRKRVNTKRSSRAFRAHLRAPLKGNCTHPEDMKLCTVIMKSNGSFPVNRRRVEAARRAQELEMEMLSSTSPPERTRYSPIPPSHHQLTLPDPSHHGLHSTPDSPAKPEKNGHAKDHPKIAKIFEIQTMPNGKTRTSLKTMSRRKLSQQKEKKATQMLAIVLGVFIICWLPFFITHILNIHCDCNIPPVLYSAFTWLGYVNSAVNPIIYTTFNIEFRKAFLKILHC
T1 sequence (P41143 whole entry): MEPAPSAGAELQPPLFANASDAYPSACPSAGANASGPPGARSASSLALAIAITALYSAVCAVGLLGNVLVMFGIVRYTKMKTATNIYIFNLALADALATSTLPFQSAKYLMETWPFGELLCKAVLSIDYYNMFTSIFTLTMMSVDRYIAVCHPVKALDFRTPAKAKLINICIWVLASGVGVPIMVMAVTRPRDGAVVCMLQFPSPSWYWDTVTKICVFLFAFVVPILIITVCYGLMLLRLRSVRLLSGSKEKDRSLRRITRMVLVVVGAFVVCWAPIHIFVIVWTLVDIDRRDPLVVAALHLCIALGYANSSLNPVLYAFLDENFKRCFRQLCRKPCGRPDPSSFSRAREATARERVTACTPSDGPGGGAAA
T10 sequence (Q01726 whole entry): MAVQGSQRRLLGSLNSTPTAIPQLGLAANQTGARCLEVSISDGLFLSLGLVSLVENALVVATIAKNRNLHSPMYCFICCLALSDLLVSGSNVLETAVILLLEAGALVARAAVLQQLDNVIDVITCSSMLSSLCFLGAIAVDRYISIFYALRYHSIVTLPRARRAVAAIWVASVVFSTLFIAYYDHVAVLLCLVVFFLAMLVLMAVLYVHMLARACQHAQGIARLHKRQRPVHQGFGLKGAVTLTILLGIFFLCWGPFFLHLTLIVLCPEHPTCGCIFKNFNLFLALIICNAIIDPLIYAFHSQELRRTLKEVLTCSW
T3 sequence (P30411 whole entry): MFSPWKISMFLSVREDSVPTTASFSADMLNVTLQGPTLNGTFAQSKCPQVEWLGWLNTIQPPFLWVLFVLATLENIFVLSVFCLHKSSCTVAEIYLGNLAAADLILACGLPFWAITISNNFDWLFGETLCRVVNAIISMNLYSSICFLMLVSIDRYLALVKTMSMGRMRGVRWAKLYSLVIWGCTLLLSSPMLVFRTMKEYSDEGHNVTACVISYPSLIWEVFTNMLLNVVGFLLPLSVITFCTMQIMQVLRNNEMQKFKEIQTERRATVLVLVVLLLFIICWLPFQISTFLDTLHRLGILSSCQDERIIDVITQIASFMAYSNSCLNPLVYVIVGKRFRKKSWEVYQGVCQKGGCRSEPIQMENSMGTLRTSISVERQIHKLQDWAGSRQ
T7 sequence (P25929 whole entry): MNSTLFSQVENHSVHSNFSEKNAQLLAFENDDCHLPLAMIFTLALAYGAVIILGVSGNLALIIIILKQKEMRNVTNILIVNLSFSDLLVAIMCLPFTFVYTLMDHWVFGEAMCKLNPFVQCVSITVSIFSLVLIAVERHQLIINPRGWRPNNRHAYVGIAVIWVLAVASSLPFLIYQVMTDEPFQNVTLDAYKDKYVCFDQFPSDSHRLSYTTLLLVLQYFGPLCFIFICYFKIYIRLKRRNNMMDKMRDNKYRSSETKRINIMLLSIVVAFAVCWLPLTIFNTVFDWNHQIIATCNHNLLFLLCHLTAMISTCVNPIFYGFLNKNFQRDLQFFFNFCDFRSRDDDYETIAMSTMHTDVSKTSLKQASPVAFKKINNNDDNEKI
T12 sequence (P41595 whole entry): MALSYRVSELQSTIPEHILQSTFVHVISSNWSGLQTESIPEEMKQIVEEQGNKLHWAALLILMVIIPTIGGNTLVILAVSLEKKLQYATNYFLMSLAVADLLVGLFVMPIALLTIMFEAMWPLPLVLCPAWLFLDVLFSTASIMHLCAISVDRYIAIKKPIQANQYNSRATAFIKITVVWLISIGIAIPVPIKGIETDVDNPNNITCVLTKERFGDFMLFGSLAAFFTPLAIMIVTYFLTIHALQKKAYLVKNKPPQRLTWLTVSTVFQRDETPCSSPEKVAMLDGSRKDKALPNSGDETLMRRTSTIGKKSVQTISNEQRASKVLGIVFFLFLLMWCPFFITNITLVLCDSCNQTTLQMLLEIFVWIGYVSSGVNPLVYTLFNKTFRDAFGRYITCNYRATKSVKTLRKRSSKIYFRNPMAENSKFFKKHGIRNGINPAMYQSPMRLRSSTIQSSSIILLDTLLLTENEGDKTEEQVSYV
T6 sequence (Q01959 whole entry): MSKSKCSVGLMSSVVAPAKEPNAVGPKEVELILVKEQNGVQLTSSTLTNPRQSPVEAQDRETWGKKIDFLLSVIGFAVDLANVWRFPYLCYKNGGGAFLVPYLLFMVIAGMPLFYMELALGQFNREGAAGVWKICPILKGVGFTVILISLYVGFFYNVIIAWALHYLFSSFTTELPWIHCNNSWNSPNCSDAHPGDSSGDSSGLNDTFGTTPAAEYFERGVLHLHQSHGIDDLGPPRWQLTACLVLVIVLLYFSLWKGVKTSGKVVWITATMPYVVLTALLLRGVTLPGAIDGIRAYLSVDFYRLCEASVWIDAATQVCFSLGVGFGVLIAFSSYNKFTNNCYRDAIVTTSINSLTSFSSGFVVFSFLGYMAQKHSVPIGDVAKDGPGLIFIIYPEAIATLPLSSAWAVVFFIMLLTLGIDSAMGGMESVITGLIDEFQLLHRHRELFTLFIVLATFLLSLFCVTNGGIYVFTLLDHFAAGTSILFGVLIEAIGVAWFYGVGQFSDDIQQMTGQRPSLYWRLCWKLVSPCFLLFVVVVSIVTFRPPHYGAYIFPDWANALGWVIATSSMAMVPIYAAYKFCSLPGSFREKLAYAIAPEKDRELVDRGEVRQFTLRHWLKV
T5 sequence (P41594 21-1212): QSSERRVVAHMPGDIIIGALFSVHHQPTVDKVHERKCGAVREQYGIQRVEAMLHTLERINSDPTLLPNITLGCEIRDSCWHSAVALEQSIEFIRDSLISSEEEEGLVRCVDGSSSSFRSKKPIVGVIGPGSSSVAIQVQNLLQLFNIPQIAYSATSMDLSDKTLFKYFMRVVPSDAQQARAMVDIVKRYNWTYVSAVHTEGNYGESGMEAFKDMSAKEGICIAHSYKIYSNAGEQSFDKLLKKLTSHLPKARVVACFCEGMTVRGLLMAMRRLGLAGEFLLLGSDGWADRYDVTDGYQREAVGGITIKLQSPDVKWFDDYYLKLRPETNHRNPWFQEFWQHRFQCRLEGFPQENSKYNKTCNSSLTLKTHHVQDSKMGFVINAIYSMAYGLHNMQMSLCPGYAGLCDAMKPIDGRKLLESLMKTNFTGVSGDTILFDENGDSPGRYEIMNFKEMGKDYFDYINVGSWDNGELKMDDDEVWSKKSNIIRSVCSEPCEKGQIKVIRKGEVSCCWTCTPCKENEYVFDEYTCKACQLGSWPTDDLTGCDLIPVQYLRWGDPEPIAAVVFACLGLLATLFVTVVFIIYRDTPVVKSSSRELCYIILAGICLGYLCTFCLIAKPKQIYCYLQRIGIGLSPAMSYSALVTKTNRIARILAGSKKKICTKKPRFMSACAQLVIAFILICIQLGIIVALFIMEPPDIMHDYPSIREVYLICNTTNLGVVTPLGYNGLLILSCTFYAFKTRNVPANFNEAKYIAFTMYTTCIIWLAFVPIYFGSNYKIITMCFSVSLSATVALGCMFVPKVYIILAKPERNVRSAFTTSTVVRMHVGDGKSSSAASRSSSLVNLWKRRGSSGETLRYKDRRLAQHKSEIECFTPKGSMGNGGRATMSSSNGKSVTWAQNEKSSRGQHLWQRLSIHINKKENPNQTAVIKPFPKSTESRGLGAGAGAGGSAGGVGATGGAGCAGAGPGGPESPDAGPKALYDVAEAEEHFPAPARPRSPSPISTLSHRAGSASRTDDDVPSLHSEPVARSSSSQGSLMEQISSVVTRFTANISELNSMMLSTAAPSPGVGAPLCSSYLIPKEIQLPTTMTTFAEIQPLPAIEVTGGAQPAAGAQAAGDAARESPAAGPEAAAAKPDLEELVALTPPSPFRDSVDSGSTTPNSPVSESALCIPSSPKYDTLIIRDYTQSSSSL

As to `COCCOCCO[C@@H]1[C@@H](OP(=O)(O)O)[C@H](OCCOCCOC)[C@@H](OP(=O)(O)O)[C@@H](OP(=O)(O)O)[C@H]1OP(=O)(O)O` [(OEG2)2-IP4, 4,6-Di-O-(methoxy-diethyleneglycol)-myo-inositol-1,2,3,5-tetrakis(phosphate)], the inhibition at 10 µM against Glutamate, NMDA, Glycine was 6%; on Opiate δ1 (OP1, DOP), -2%; against α2B it was 3%; at Bradykinin B2, -17%; in data set [1] it was 4%; in data set [2], 24%. Further, the inhibition at 10 µM in data set [4] was 19%; on Neuropeptide Y Y1 it was -9%; at Dopamine D2L it was -10%; in [5] it was 6%; at Melanocortin MC1, 9%; on Progesterone PR-B, -4%. In addition, the inhibition at 10 µM in data set [6] turned out to be 1%. The “% Inhibition” value in the data set on Glutamate, AMPA was found to be 8%; in the data set with Glutamate, Kainate it was 17%. Further, the “stability in aqueous solution by 1H- and 31P-NMR” value in data set [3] is recorded as “No compound degradation was evident”. The “% bone area compared with vehicle” value with bone (5, 15, 50 mg/kg/day) was “significantly higher”. In addition, the “osteoblast and osteoclast morphology” value with bone (rat, in vivo) was “not impacted”. Besides, the osteoid area entry in the data set with bone (treatment groups) is reported as “distinct increase in the osteoid area”. In addition, the “mineralized trabecular bone area” value with bone (various doses tested) is given as “unchanged mineralized trabecular bone area”. Further, the “protein-bound fraction in healthy human plasma” value in [7] (total measured concentration 2.8 µg/mL (4 µM)) was 58%; in data set [7] (total measured concentration 27.5 µg/mL (39.5 µM)), 42%.

Regarding `O=P(O)(O)O[C@H]1[C@H](OP(=O)(O)O)[C@@H](OP(=O)(O)O)[C@H](OP(=O)(O)O)[C@@H](OP(=O)(O)O)[C@H]1OP(=O)(O)O` [IP6, myo-Inositol hexakisphosphate], the “plasma half-life (t1/2)” value in data set [8] (healthy volunteers) is given as 54 min; in data set [8] (hemodialyzed patients), 27 min. The “reduction in serum calcium levels” value in data set [9] is listed as 17%.

(Values after paper PMC7002685, “Inhibition of vascular calcification by inositol phosphates derivatized with ethylene glycol oligomers” (Nature Communications, 2020).)
